# In PubChem BioAssay (NCI):
#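 Interpolation was linear, between the two tested concentrations surrounding the appropriate level; five concentrations were tested over 48 hours in 96-well plates. TGI marks complete inhibition of growth.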
# Tests used:
# Assay in all cases: DTP human tumour cell line panel, 48 h
# [1] = test system: CCRF-CEM leukemia
# [2] = test system: KM20L2 colon
# [3] = test system: SF-295 CNS
# [4] = test system: LXFL 529 NSCLC
# [5] = test system: DMS 114 small cell lung
# [6] = test system: M19-MEL melanoma
# [7] = test system: RXF-631 renal
# [8] = test system: XF 498 CNS
# [9] = test system: HOP-62 NSCLC
# [10] = test system: DMS 273 small cell lung
# [11] = test system: DLD-1 colon
# [12] = test system: SNB-78 CNS
# [13] = test system: HOP-18 NSCLC
Structure (SMILES),TGI [1] [µM],TGI [2] [µM],TGI [3] [µM],TGI [4] [µM],TGI [5] [µM],TGI [6] [µM],TGI [7] [µM],TGI [8] [µM],TGI [9] [µM],TGI [10] [µM],TGI [11] [µM],TGI [12] [µM],TGI [13] [µM]
CC#C[I+]c1ccccc1,18.7,36.1,> 100,27.1,26.3,45,> 100,33.5,96.6,27.8,30.2,54.5,34.4
COc1ccc2c(c1)OC[C@@H]1c3cc4c(cc3O[C@H]21)OCO4,> 100,> 100,> 100,> 100,> 100,–,–,> 100,> 100,> 100,> 100,> 100,> 100
O=C(O)CC/C(=N\Nc1nsc2ccccc12)c1ccc(Cl)cc1,> 54.6,> 100,> 100,41.1,> 100,> 100,–,–,> 63.5,41.2,–,> 100,52
CC(=O)O[C@H]1C(=O)[C@@]2(C)C(C(OC(=O)c3ccccc3)[C@]3(O)CC(OC(=O)C(O)C(NC(=O)c4ccc(C)cc4)c4ccccc4)C(C)=C1C3(C)C)[C@]1(OC(C)=O)CO[C@@H]1C[C@@H]2O (some centres not stated),> 25,–,0.107,> 25,< 0.0025,4.23,–,0.0201,14.1,3.25,15.4,> 25,–
Clc1c(Cl)c2c(Cl)c(Cl)c1C[P+](c1ccccc1)(c1ccccc1)CC[P+](c1ccccc1)(c1ccccc1)Cc1c(Cl)c(Cl)c(c(Cl)c1Cl)C[P+](c1ccccc1)(c1ccccc1)CC[P+](c1ccccc1)(c1ccccc1)C2,9.63,12.9,12.6,8.12,3.7,9.91,23.7,–,18.5,6.59,13.2,18.9,20.6
O=C1CC2(CCNCC2)C(=O)N1N1CCCC1,> 100,–,> 100,–,–,–,–,–,> 100,–,–,–,–
O=C(CCCl)NNC1=NCCN1,> 100,–,> 100,–,–,–,–,–,> 100,–,–,–,–
CC(C)OP(=O)(OC(C)C)C(=Nc1ccccc1)NNc1ccc([N+](=O)[O-])cc1,56.9,> 100,–,> 100,69.5,> 100,–,61,> 100,59,> 100,43.1,–
ClC1=C(Cc2ccccc2)Cc2ccc3c(c21)CCC3,90.1,–,91.8,–,–,–,–,–,> 100,–,–,–,–
COc1ccccc1Cn1nc(OC)c2cc([N+](=O)[O-])ccc21,> 100,–,20,–,–,–,–,–,20.3,–,–,–,–
COC(=O)C1(Cc2ccccc2)Cc2ccc3c(c2C1=O)CCC3 (configuration not stated),> 89.5,–,> 100,–,–,–,–,–,> 100,–,–,–,–
CN(C)c1nc(-c2ccccc2)c(C(=O)c2c[nH]c3ccccc23)s1,> 60.5,–,> 100,–,–,–,–,–,> 100,–,–,–,–
Cc1[nH]c(=O)nc(NCCNCCO)c1C(=O)Nc1c2ccccc2nc2ccccc12,> 100,–,> 100,–,–,–,–,–,> 100,–,–,–,–
O=C(Cc1ccc(Cl)c(Cl)c1)N(CCc1ccc(Cl)c(Cl)c1)CCN1CCCC1,3.12,–,3.84,–,–,–,–,–,3.38,–,–,–,–
CCOC(=O)C1=c2[nH]c3cccc4cccc(c43)n2C=C(C(C)=O)C1CC(C)=O (configuration not stated),> 100,–,> 100,–,–,–,–,–,> 100,–,–,–,–
COP1(=O)Oc2ccccc2C(=O)C(C(F)(F)F)(C(F)(F)F)O1 (configuration not stated),> 100,> 100,> 100,> 100,> 100,> 100,–,> 100,> 100,> 100,> 100,–,–
N#CC(c1cc2c(cc1Br)OCO2)N1CCOCC1 (configuration not stated),> 100,–,> 100,–,–,–,–,–,> 100,–,–,–,–
O=c1[nH]nc(Cc2ccc(Cl)cc2)n1/N=C\c1ccc(/C=N/n2c(Cc3ccc(Cl)cc3)n[nH]c2=O)cc1,> 100,–,> 100,–,–,–,–,–,57.5,–,–,–,–
CC(C)NC(=O)OCCN=C1c2ccccc2CCc2ccccc21,46.5,–,28.7,–,–,–,–,–,70.1,–,–,–,–
